# Measurements from publication PMC8805037, “Ready access to 7,8-dihydroindolo[2,3-d][1]benzazepine-6(5H)-one scaffold and analogues via early-stage Fischer ring-closure reaction” (Beilstein Journal of Organic Chemistry, 2022).
# Target: proto-oncogene tyrosine-protein kinase Src (Homo sapiens, UniProt P12931)
# Test: IC50 reported as preliminary result; assay not described in the text shown
# Format: biochemical
# proto-oncogene tyrosine-protein kinase Src, sequence (P12931 2-536): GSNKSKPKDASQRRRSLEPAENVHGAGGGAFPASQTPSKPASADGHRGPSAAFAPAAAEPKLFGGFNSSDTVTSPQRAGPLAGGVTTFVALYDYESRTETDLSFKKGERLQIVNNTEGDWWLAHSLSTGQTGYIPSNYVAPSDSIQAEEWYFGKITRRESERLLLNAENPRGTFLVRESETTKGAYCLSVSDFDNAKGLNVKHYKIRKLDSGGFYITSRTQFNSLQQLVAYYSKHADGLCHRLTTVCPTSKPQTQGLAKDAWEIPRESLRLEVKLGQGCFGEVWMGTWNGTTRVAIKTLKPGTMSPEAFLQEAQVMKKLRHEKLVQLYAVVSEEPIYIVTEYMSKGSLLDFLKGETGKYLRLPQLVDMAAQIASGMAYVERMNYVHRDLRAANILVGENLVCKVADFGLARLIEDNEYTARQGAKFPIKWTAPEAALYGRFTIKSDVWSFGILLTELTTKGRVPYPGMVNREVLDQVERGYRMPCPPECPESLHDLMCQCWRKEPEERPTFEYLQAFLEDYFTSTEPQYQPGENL
smiles,measurement,value
"O=C1Cc2[nH]c3ccccc3c2-c2ccccc2N1 [C, 7,8-dihydroindolo[2,3-d][1]benzazepin-6(5H)-one]",IC50,260 nM
